In patent US10336752B2, “TYK2 inhibitors, uses, and methods for production thereof” (Nimbus Lakshmi, Inc., priority 2017, dated 2019):
≈ marks a conversion by molar mass, not a printed value.

Key:
[1] = CACO-2 Cell Permeability Assay; format: in vitro ADME; conditions: human, Caco-2, pH 7.4, apical to basolateral
Experimental: Caco-2 cells were diluted to 6.86×10^5 cells/mL with culture medium and 50 μL of cell suspension were dispensed into the filter well of the 96-well HTS Transwell plate. Cells were cultivated for 14˜18 days in a cell culture incubator at 37° C., 5% C02, 95% relative humidity. Cell culture medium was replaced every 2 days, beginning no later than 24 hours after initial plating. 3) After 14˜18 days incubation, the plates were removed from incubator. The inserts were washed twice with pre-warmed HBSS (10 mM HEPES, pH 7.4) and placed into receiver plates. 75 μL and 235 μL of buffer were added to each Transwell inserts and receiver wells, respectively. Then the plates were incubated for 30 min at 37° C. with shaking at 150 rpm. Stock solutions of control compound were prepared in DMSO at 10 mM and then diluted to 1 mM with DMSO followed by further diluting with HBSS (10 mM HEPES, pH 7.4) to get compound working solution. Stock solutions of test compound were prepared in DMSO at 10 mM and then diluted to 1 mM with DMSO followed by further diluting with HBSS (10 mM HEPES, pH 7.4, 4% BSA) to get compound working solution. The final concentration of test compound and control compound was 5 μM. To determine the rate of drug transport in the apical to basolateral direction, 75 μL of compound working solution was added to the filter well (apical compartment) and 235 μL of HBSS (10 mM HEPES, pH 7.4, or 4% BSA) to receiver plate (basolateral compartment). To determine the rate of drug transport in the basolateral to apical direction, 235 μL of compound working solution was added to each well of the receiver plate (basolateral compartment) and 75 μL of HBSS (10 mM HEPES, pH 7.4, or 4% BSA) to filter well (apical compartment). The assay was performed in duplicate. 6) Plates were incubated for 2 hours at 37° C. At the end of the transport period, aliquots of 50 μL were removed directly from the apical and basolateral wells and transferred to wells of new plates. Four volumes of cold Methanol containing internal standards (IS, 100 nM Alprazolam, 200 nM Labetalol and 200 nM Diclofenac) was added into each well. Samples were centrifuged at 3,220 g for 30 minutes. An aliquot of 100 μL of the supernatant mixed with 100 μL of ultra-pure water were used for LC-MS/MS analysis. 7) Solution was discarded from Transwell plates. 100 μL of Lucifer Yellow solution (100 μM in HBSS) and 300 μL of HBSS were added into each well of Transwell insert and receiver, respectively, for leakage determination. Plates were incubated at 37° C. for 30 minutes. 80 μL aliquots from wells of apical and basolateral sides were transferred to solid black plates and the plate was read with Tecan Infinite M 200 (Excitation/Emission wavelength 485 nm/530 nm). The liquid fractions, apical and basolateral layers were analyzed by LC-MS to determine Papp(A-B), Papp(B-A) and recovery.

[2] = Metabolic Clearance Assay in Microsomes (human liver microsomes); format: in vitro ADME; conditions: NADPH and UDPGA, read-out: HLM Clint
Experimental: A master solution was prepared containing 0.5 mg/mL of either rat or human liver microsomes, 5 mM MgCl2, 100 mM phosphate buffer, and 25 ug/mL alamethacin. 40 μL of 10 mM NADPH solution and 40 μL of 20 mM UDPGA solution were added to each well. The final concentrations of NADPH and UDPGA were 1 mM and 2 mM, respectively. The mixture was pre-warmed at 37° C. for 5 minutes. The negative control samples were prepared by replacing NADPH and UDPGA solutions with 80 μL of ultra-pure H2O. The negative control was used to exclude the misleading factor that resulted from instability of chemical itself. This study was performed in duplicate. The reaction was started with the addition of 2 μL of 400 μM control compound or test compound solutions. Diclofenac was used as positive control in this study. The final concentration of test compound or control compound was 2 μM. Aliquots of 50 μL were taken from the reaction solution at 0, 15, 30, 45 and 60 minutes. The reaction was stopped by the addition of 4 volumes of cold acetonitrile (or methanol) with internal standard (IS) (100 nM alprazolam, 200 nM imipramine, 200 nM labetalol and 2 μM ketoprofen) at the designated time points. Samples were centrifuged at 3,220 g for 40 minutes to precipitate protein. Aliquot of 100 μL supernatant diluted by 100 μL of water was used for LC-MS/MS analysis. The in vitro half-life, scale-up intrinsic clearance, and predicted hepatic clearance were calculated according to standard calculations.

[3] = Kinetic Solubility Determination Assay; format: physicochemical; conditions: aqueous buffer, kinetic from dmso stock, PBS pH 7.4, RT, read-out: Kin. Sol. pH 7.4
Experimental: Stock solutions of test compounds were prepared in DMSO at the concentration of 10 mM. The stock solutions of positive control compound were prepared in DMSO at the concentration of 30 mM. Progesterone was used as positive control in the assay. 30 μL stock solution of each compound was placed in order into their proper 96-well rack, followed by adding 970 μL of PBS at pH 7.4 into each vial of the cap-less solubility sample plate. This study was performed in duplicate. One stir stick was added to each vial and then vials were sealed using a molded PTDE/SIL 96-Well Plate Cover. The Solubility Sample plate was transferred to the Thermomixer Comfort plate shaker and incubated at RT for 2 hours with shaking at 1100 rpm. After 2 hours incubation, stir sticks were removed using a big magnet and all samples from the Solubility Sample plate were transferred into the filter plate. All the samples were filtered by using the vacuum manifold. The filtered samples were diluted with methanol. Standards of each test compound were prepared at 0.3, 0.09 and 0.1 μM concentrations and both the test samples and standards were analyzed by LC-MS and the test samples were quantified against a standard of known concentration in DMSO using mass spectral peak identification and quantitation.

[4] = Dissolution Assay in Fasted Simulated Gastric Fluid; format: physicochemical; conditions: 37° C., 50 rpm, compressed disc
Experimental: The dissolution bath was filled with 900 mL of media for testing, the bath temperature held at 37° C., the rotation rate of the apparatus was 50 rpm, the draw point for the sampling probe was set exactly halfway between the surface of the media and the surface of the disc. The test article (0.4 g) was compressed into a disc using a Woods apparatus. The sampling time points were 10, 30, 60, 90, 120, 150 & 180. The samples were analysed by HPLC for concentration against a sample preparation of known concentration (ca. 0.5 mg/ml). Dissolution rate was derived from the curve of concentration against time.

[5] = Pharmacokinetic Study in Dogs; format: in vivo; conditions: male, Beagle; dog, oral gavage 10 mg/kg, 20% HPβCD aq., plasma
Experimental: Male Beagle dogs (9-14 kg; 2.5 to 5.5 years of age) housed one per cage under standard laboratory conditions were fasted for approximately 16 to 17 hours prior to dosing with food returned approximately 2 hours after dosing. […] Blood samples were collected from the jugular vein (˜1.5 mL) by venipuncture, and stored in tubes treated with K2EDTA, then centrifuged (3000 g, 4° C., 5 min). The plasma samples were transferred and stored at −70° C. until analysis. Bioanalysis: Concentrations for experimental samples and plasma calibration standards were determined by LC/MS/MS (API-5500, reverse-phase chromatography, APCI) following extraction by plasma precipitation with cold acetonitrile (4:1 ACN/plasma by volume) containing verapamil as an internal standard. PK Analysis: The individual animal plasma concentration-time data was analyzed by noncompartmental analysis (linear trapazoidal fitting) using PK Solver software (v2.0).

[6] = target: TYK2 (Homo sapiens (Human), UniProt P29597); test: 1 mM ATP Tyk2 Caliper Assay; format: biochemical; conditions: ATP 1000 uM
Experimental: Compounds were serially diluted in DMSO then further diluted in 1x kinase buffer: 5 uL of buffer diluted compound was added into wells first, then 10 uL of Tyk2 enzyme mix was added into wells, followed by 10 uL of substrate mix to start reaction. Reaction was incubated at 28° C. for 25 min and then added 25 uL stop buffer. The reaction mixture was read by a Caliper […]. Final concentrations for assay conditions were: 25 mM HEPES, pH 7.5, 0.01% Brij-35, 0.01% Triton, 0.5 mM EGTA, 2 mM DTT, 10 mM MgCl2, TYK2 4 nM, ATP concentration 1000 uM, and P30 3 uM.

[7] = Solid form stability of Compound 1 mesylate forms; format: physicochemical; conditions: for solid form stability at ambient conditions: drying / ambient conditions

Sequence of TYK2 (P29597 whole entry): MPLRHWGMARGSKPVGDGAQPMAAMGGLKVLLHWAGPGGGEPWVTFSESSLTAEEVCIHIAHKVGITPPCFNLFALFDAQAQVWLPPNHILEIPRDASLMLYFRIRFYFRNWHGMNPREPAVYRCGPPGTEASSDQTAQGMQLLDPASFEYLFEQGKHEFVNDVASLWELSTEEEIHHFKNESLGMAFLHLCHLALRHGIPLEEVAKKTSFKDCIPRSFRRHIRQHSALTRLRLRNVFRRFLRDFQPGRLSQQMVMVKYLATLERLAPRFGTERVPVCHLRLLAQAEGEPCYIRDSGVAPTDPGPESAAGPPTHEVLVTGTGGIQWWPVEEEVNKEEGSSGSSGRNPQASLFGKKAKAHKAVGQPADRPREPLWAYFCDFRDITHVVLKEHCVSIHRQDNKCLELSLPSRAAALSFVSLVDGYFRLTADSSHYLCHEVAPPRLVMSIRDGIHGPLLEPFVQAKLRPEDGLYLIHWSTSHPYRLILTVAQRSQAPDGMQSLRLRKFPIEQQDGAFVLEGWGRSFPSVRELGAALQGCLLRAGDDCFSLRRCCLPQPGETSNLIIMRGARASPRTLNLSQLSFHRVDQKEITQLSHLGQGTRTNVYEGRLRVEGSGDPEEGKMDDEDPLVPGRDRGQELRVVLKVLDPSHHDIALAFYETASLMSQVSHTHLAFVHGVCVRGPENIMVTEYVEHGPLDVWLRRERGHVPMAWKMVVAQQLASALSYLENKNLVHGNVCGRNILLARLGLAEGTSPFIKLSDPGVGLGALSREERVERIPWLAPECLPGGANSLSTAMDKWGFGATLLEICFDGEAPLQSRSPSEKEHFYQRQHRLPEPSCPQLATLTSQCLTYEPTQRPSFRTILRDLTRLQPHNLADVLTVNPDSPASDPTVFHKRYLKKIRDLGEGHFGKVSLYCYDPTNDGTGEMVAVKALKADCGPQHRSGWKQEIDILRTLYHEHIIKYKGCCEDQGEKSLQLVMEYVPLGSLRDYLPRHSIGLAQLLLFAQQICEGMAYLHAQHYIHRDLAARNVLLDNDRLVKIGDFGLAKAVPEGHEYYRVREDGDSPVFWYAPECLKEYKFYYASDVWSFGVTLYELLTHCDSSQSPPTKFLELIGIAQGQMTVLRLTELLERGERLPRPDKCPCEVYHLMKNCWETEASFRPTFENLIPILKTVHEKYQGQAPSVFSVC

Row | SMILES | Papp A→B at 2 h, 5 μM [1] [×10⁻⁶ cm/s] | CLint scaled at 2 μM [2] [mL/min/kg] | solubility kinetic at 2 h [3] [µM] | dissolution rate in Fasted Simulated Gastric Fluid (FaSSGF) [4] [μg/cm^2/min] | AUC(0-t) [5] [ng·h/mL] | Cmax [5] [ng/mL] | IC50 [6] [nM] | solid form stability at ambient conditions [7] | solid form stability upon grinding ([7]; grinding)
1 | O=C1NCc2nc(-c3c(F)cccc3F)cc(Nc3ccc(C(=O)N4CCCC4)cc3)c21 [Compound 1] | 5.77 | 0.62 | 274 (≈ 119 µg/mL) | 57.5 | 18700 | 2100 | – | – | –
2 | O=C1NCc2nc(-c3c(F)cccc3F)cc(Nc3ccc(N4CCCC4)cn3)c21 [Compound 7] | 13.5 | 10.9 | < 0.5 | – | – | – | 390 | – | –
3 | O=C1NCc2nc(-c3c(F)cccc3F)cc(Nc3ccc(N4CCOCC4)cn3)c21 [Compound 8] | 13.1 | 1.2 | 11.9 (≈ 5.05 µg/mL) | – | – | – | 33 | – | –
4 | O=C1NCc2nc(-c3c(F)cccc3F)cc(Nc3ccc(C(=O)N4CCOCC4)cc3)c21 [Compound 9] | 3.43 | 3 | 172 (≈ 77.3 µg/mL) | 21.2 | 10200 | 1070 | 134 | – | –
5 | O=C1NCc2nc(-c3c(F)cccc3F)cc(Nc3ccc(C(=O)N4CCCCC4)cc3)c21 [Compound 10] | 4.03 | 7.81 | 1.45 (≈ 0.65 µg/mL) | – | – | – | 90 | – | –
6 | CCN(CC)C(=O)c1ccc(Nc2cc(-c3c(F)cccc3F)nc3c2C(=O)NC3)cc1 [Compound 11] | 5.62 | – | 1.86 (≈ 0.812 µg/mL) | – | – | – | 119 | – | –
7 | CC1(O)CCN(C(=O)c2ccc(Nc3cc(-c4c(F)cccc4F)nc4c3C(=O)NC4)cc2)CC1 [Compound 12] | 0.41 | – | 237 (≈ 113 µg/mL) | – | – | – | 136 | – | –
8 | O=C1NCc2nc(-c3c(F)cccc3F)cc(Nc3ccc(C(=O)N4CCOCC4)nc3)c21 [Compound 13] | 2.89 | 1.9 | 252 (≈ 114 µg/mL) | – | – | – | – | – | –
9 | N#Cc1cccc(F)c1-c1cc(Nc2ccc(C(=O)N3CCOCC3)cc2)c2c(n1)CNC2=O [Compound 14] | 2.08 | – | 271 (≈ 124 µg/mL) | – | – | – | 24.2 | – | –
10 | O=C1NCc2nc(-c3c(F)cccc3F)cc(Nc3ccc(C(=O)N4CCC4)cc3)c21 [Compound 15] | 7.59 | 1.78 | 3.75 (≈ 1.58 µg/mL) | – | – | – | 74.1 | – | –
11 | N#Cc1cccc(F)c1-c1cc(Nc2ccc(C(=O)N3CCCC3)cc2)c2c(n1)CNC2=O [Compound 16] | 2.63 | – | 32.9 (≈ 14.5 µg/mL) | – | – | – | 17.7 | – | –
12 | O=C1NCc2nc(-c3c(F)cccc3F)cc(Nc3ccc(C(=O)N4C[C@H]5COC[C@H]5C4)cc3)c21 [Compound 17] | 1.52 | – | 205 (≈ 97.5 µg/mL) | – | – | – | 88.6 | – | –
13 | CS(=O)(=O)O.O=C1NCc2nc(-c3c(F)cccc3F)cc(Nc3ccc(C(=O)N4CCCC4)cc3)c21 [Form III of Compound 1 mesylate] | – | – | – | – | – | – | – | transition to Form IV | –
14 | CS(=O)(=O)O.O=C1NCc2nc(-c3c(F)cccc3F)cc(Nc3ccc(C(=O)N4CCCC4)cc3)c21 [Form IV of Compound 1 mesylate] | – | – | – | – | – | – | – | stable | –
15 | CS(=O)(=O)O.O=C1NCc2nc(-c3c(F)cccc3F)cc(Nc3ccc(C(=O)N4CCCC4)cc3)c21 [Form V of Compound 1 mesylate] | – | – | – | – | – | – | – | – | transition to Form I
